Experimental findings from patent US20060276455A1, “Use of a mast cell activation or degranulation blocking agent in the manufacture of a medicament for the treatment of cerebral ischemia” (priority 2003, published 2006) are described below.

For experiment [1], the system named is focal cerebral ischemia in rats (middle cerebral artery occlusion). Nature of the experiment: Postischemic neutrophil response (Leder staining) after transient MCA occlusion. The class given is in vivo, rat. The note with it: i.c.v. pretreatment, 4 h after MCAO, vs control.
Description: We used the suture MCA occlusion model with reperfusion, described elsewhere. Briefly, we exposed the right common carotid artery (CCA) and the right external carotid artery (ECA) through a ventral midline neck incision. We ligated the proximal CCA and the origin of the ECA. We inserted a 4-0 nylon mono-filament suture (Ethilon Nylon Suture, ETHICON) with its tip rounded by heating near a flame and then coated with silicone into the right CCA via an arteriectomy. Reperfusion was accomplished by withdrawing the suture occluder 60 minutes after MCAO, whereafter the animals were allowed to recover. Four hours after MCAO, the rats were killed by injecting intraperitoneally 120 mg of pentobarbital natrium (Mebumat). Cardiac perfusion was performed with the heart still beating but respiration ceased by infusing 250 mL of ice cold 0.9% saline at an inflow pressure of 100 mmHg into the arterial vascular system. […] The densities of intravascular and emigrated neutrophils were counted without prior knowledge of animal grouping in systematically placed target areas, the temporoparietal infarction core, the parasagittal infarct penumbra and the deep thalamic and basal ganglia. In each area, 60 to 100 microscopic fields of 0.1 mm^2 were counted and averaged for each location. […]
The test system of experiment [2] is cerebral hemorrhage in rats. Nature of the experiment: Surgically induced cerebral hemorrhage (autologous blood injection), outcome at 24 h. The settings on record: i.c.v.
Protocol: In anesthesized rats, 2 craniotomies were performed for the introduction of drug infusion and blood. We injected 50 microliters of autologous arterial blood via stereotactically a Hamilton needle tip placed to the caudate putamen (6 mm from skull surface), a common location of spontaneous cerebral hemorrhages.
Animals were allowed to recover and 24 h later their level of neurological deterioration was rated on a 6-point scale: 5=dead, 4=stuporous, moribund, 3=hemiparetic with balance disturbance, 2=hemiparesis, 1=paresis of contralateral paw, 0=normal. The mortality was also recorded by 24 hours.

For the molecule `O=C(O)c1cc(=O)c2c(OCC(O)COc3cccc4oc(C(=O)O)cc(=O)c34)cccc2o1` [disodium cromoglycate], in experiment [1], the “decrease of density of neutrophils in the infarcted hemisphere” value came out at 37%. Moreover, in experiment [2] (24 h, saline-treated 3.2, p<0.01), the “six-point neurological score (0=normal, 5=dead), average” value was 0.89. Also, the “mortality by 24 hours” value in experiment [2] (saline-treated group 40%) worked out at 0%.
